Patent US20090291964A1, “Potentiators of Antibacterial Activity” (priority 2003, published 2009)
Marks after values point to notes of the source that are not given here.

Legend:
Type in all cases: cell-based
E. faecalis ATCC 29212 = assay: Minimal effective concentration (MEC) of EPI for EtBr; conditions: lowest amount of EPI which produces the maximum effect on the MIC of ethidium bromide
Protocol: (§1) The MEC was determined as the minimal concentration of EPI that produced the maximal reduction in substrate MIC.
(§2) The minimum effective concentration (MEC) for inhibition of EtBr efflux was determined in S. aureus, E. faecalis and S. pneumoniae for A-106 and C-9; reserpine was used as a comparator (Table 1).

S. aureus ATCC 29213 [1] = assay: as above; conditions: for MEC of EPI: S. aureus ATCC 29213, lowest amount of EPI which produces the maximum effect on the MIC of ethidium bromide
Protocol: as §1, §2

S. pneumoniae ATCC 10015 = assay: as above; conditions: lowest amount of EPI which produces the maximum effect on the MIC of ethidium bromide (reserpine: maximal subinhibitory concentration)
Protocol: as §1, §2

[2] = system: S. aureus SA-K2068 (non-NorA multidrug efflux pump overproducing); assay: microbe, parasite or virus in culture; conditions: for reduction of MIC of ciprofloxacin / reduction of MIC of gatifloxacin / reduction of MIC of levofloxacin / reduction of MIC of norfloxacin: K2068, EPIs at 4 times MEC for EtBr, A-106 at 100 μg/ml; for MIC: Staphylococcus aureus, read-out: MIC of EtBr with EPI; for Fold-reduction in MIC: gatifloxacin, S. aureus K2068 (nonNorA pump overproducer)
Text: A variety of strains may be used in these experiments, including, but not limited to, S. aureus ATCC 29213, E. faecalis ATCC 29212, and S. pneumoniae, S. aureus strains SA-1199, SA-1199B, SA-8325-4, and SA-K2068. S. aureus ATCC 29213, E. faecalis ATCC 29212, and S. pneumoniae ATCC 10015 were obtained from the American Type Culture Collection (Manassas, Va.). S. aureus strains SA-1199 (clinical isolate, susceptible), SA-1199B (SA-1199, NorA overproducing, also has A116E GrlA mutation), SA-8325-4 (NCTC 8325 cured of prophages), SA-K2068 (SA-8325-4, non-NorA multidrug efflux pump overproducing mutation) were obtained from Glenn Kaatz (Kaatz et al., “Identification and characterization of a novel efflux-related multidrug resistance phenotype in Staphylococcus aureus”, J. Antimicrob. Chemother. 50:833-838 (2002); 1993; Kaatz et al., “Phenothiazines and thioxanthenes inhibit multidrug efflux pump activity in Staphylococcus aureus”, Antimicrob. Agents Chemother. 47:719-726, Kaatz et al., “Efflux-mediated fluoroquinolone resistance in Staphylococcus aureus. Antimicrob. Agents Chemother.”, 37:1086-1094, 1993)).
3% sterile laked horse blood (Quad Five, Ryegate, Mont.) was added to assays for E. faecalis and S. Pneumoniae. A final concentration of 1% DMSO was present in all assays.
Recent more hydrophobic fluoroquinolones such as gatifloxacin and moxifloxacin are less well recognized by NorA; however, recently one other pump in S. aureus has been described which also recognizes hydrophobic fluoroquinolones (Kaatz et al. 2002, supra). To investigate the potential of A-106 and C-9 to block the efflux of several fluoroquinolones in cells with constituitively over-expressed efflux pumps, we used S. aureus strains SA-1199B and K2068 (Table 3). […] Kaatz et al., “Phenothiazines and thioxanthenes inhibit multidrug efflux pump activity in Staphylococcus aureus”, Antimicrob. Agents Chemother. 47:719-726 (2003).

S. aureus SA-1199B = assay: Minimal effective concentration (MEC) of EPI for gatifloxacin; conditions: for MEC: S. aureus SA-1199B (NorA overproducer), lowest amount of EPI which produces the maximum effect on the MIC of gatifloxacin; for MEC for gatifloxacin: efflux mutant, strain not named in the sentence (SA-1199B by context)
Protocol: as §1
Since any given compound may be recognized by an unknown number of efflux pumps in a particular organism, we reasoned that the MEC of A-106 and C-9 should vary for different antibiotics. Also, the MEC of A-106 and C-9 should vary with the degree of efflux expression in a given strain. […] This was confirmed with two other wild type strains, SA-8325-4 and SA-1199 (Table 3).
The MEC of A-106 and C-9 for gatifloxacin was determined in these efflux mutants. […] A similar result was obtained with efflux mutant K2068, where the MEC for A-106 was 6.25 μg/ml and the MEC for C-9 was 3.1 μg/ml. […] This may reflect that either gatifloxacin is recognized by fewer pumps than EtBr or it is a poorer efflux substrate in general. This is consistent with the finding that the activity of A-106 was non-saturable for EtBr but is saturable for gatifloxacin.

S. aureus ATCC 29213 [3] = assay: MIC by NCCLS microdilution, antibacterial agents with and without EPI; conditions: at 100 μg/ml
[4] = S. aureus K2068 (nonNorA pump overproducer) (Table 4)
[5] = S. aureus K2068, EPI at 4X the MEC for EtBr, VX-710 at 100 μg/ml

| SMILES | MEC of EPI (E. faecalis ATCC 29212) | MEC of EPI (S. aureus ATCC 29213 [1]) | MEC of EPI (S. pneumoniae ATCC 10015) | reduction of MIC of ciprofloxacin [2] | reduction of MIC of gatifloxacin [2] | reduction of MIC of levofloxacin [2] | reduction of MIC of norfloxacin [2] | MIC of gatifloxacin with EPI [2, 4] | MIC of ciprofloxacin with EPI [2, 5] | MIC of gatifloxacin with EPI [2, 5] | MIC of gentamicin with EPI [2, 5] | MIC of levofloxacin with EPI [2, 5] | MIC of norfloxacin with EPI [2, 5] | MIC [2] | Fold-reduction in MIC [2] | MEC (S. aureus SA-1199B) | MEC for gatifloxacin (S. aureus SA-1199B) | intrinsic antibacterial activity of EPI (S. aureus ATCC 29213 [3]) | MEC for EtBr efflux (S. aureus ATCC 29213 [1]; ATCC 29213, Table 1) | MIC of EtBr with EPI [2, 5] |
| --- | --- | --- | --- | --- | --- | --- | --- | --- | --- | --- | --- | --- | --- | --- | --- | --- | --- | --- | --- | --- |
| COc1cc(C(=O)C(=O)N(C)[C@@H](Cc2ccc(Cl)cc2)C(=O)N(Cc2ccccc2)C(CCc2ccncc2)CCc2ccncc2)cc(OC)c1OC [C-9, (S)—N-Benzyl-2-(methyl-(2-oxo-2-(3,4,5-trimethoxyphenyl)acetyl)amino)-3-(4-chloro-phenyl)-N-(3-pyridin-4-yl-1-(2-pyridin-4-yl-ethyl)propyl)propionamide] | 6.3 µg/mL | 1.6 µg/mL | 12.5 µg/mL | 8 fold | 4 fold | 2 fold | 8 fold | 0.5 µg/mL | 1 µg/mL | 0.5 µg/mL | 0.063 µg/mL | 0.5 µg/mL | 4 µg/mL | 3.1 µg/mL | 2 | 3.1 µg/mL | 3.1 µg/mL | no intrinsic antibacterial activity |  |  |
| COc1cc(C(=O)C(=O)N2CCCC[C@H]2C(=O)OC(CCCc2cccnc2)CCCc2cccnc2)cc(OC)c1OC [A-106] | ≧100 μg/ml | ≧100 μg/ml | ≧100 μg/ml | 4 fold | 2 fold | 2 fold | 2 fold | 0.25 µg/mL | 0.5 µg/mL | 0.25 µg/mL | 0.063 µg/mL | 0.5 µg/mL | 1 µg/mL |  | 4 | 12.5 µg/mL | 12.5 µg/mL | no intrinsic antibacterial activity | ≤ 100 µg/mL | 0.4 µg/mL |
| COC(=O)[C@H]1[C@H]2C[C@@H]3c4[nH]c5cc(OC)ccc5c4CCN3C[C@H]2C[C@@H](OC(=O)c2cc(OC)c(OC)c(OC)c2)[C@@H]1OC [reserpine, reference compound] | ≧100 μg/ml | 6.3 µg/mL | 25^c μg/ml |  |  |  |  | 0.25 µg/mL | 0.5 µg/mL | 0.25 µg/mL | 0.063 µg/mL | 0.5 µg/mL | 1 µg/mL | 1.6 µg/mL | 4 | 25 µg/mL |  |  |  |  |
